According to patent US20260297060A1, “COMPOUNDS FOR THE DEGRADATION OF MUTANT BRAF” (C4 THERAPEUTICS, INC., priority 2023, published 2026):
Where two headings read alike, the source gives them in different places.

Legend:
[1] = Example 6 pharmacokinetics assay for PKPD study (plasma, tumor, liver); assay type: in vivo, BALB/c nude mice; details: 10 mg/kg, single dose; for concentration at 6 h / concentration at 12 h / concentration at 1 h / concentration at 24 h: mouse, po
Protocol: For the pharmacokinetic/pharmacodynamic (PKPD) study, compounds were tested in the A375 human melanoma xenografts. Known BRAF inhibitors encorafenib, and dabrafenib were used as positive controls. Encorafenib, dabrafenib, Compound 83, Compound 93, Compound 70, and Compound 54 were administered to BALB/c nude mice bearing A375 tumors on PG-D1 and dosed orally (PO) once. Encorafenib was dosed at 35 mg/kg. Dabrafenib was dosed at 100 mg/kg. Compound 83, Compound 93, Compound 70, and Compound 54 were dosed at 10 mg/kg. The plasma and tumor samples were collected at 1, 6, 12 and 24 hours, and liver samples were collected at 6 hours and 12 hours post the single dose. This study was non-GLP study.
The plasma samples were collected at predetermined time points for PK analysis. The mice were euthanized at predetermined time points post the treatment. The blood samples were collected into the 1.5 mL Eppendorf tubes containing 15 μL of 0.5 M EDTA-K2. And then the anticoagulant blood samples were centrifuged at 2,500 g at 4° C. for 15 minutes. The plasma samples were separated into 2 aliquots. The 1st was used for PK analysis, and the 2nd served as backup. The samples were stored at −80° C. before bioanalysis.
The tumor samples were collected at predetermined time points for PK and WB analysis (B-RAF and p-ERK). The tumor was dissected out and split into 3 parts. The 1st part was used for PK analysis, the 2nd part was used for WB analysis and the last one served as backup for study. The samples were transferred into pre-labeled tubes and quickly froze in liquid nitrogen within 2 minutes after dissection. The samples were stored at −80° C. before bioanalysis.
Liver samples were collected at predetermined time points for PK analysis. The left lobe of the liver was dissected out and split into 2 parts. The 1st part was used for PK analysis and the 2nd part served as the backup for the study. The samples were transferred into pre-labeled tubes and quickly froze in liquid nitrogen within 2 minutes after dissection. The samples were stored at −80° C. before bioanalysis.
For PKPD study, the harvested plasma, tumor and liver were processed for pharmacokinetics analysis by LC/MS/MS with a concentration range of 0.5-1000 ng/mL for Encorafenib and Dabrafenib in plasma, 0.05-100 ng/mL for Encorafenib and Dabrafenib in tumor, 0.2-200 ng/mL for Encorafenib and Dabrafenib in liver, 2.0-2000 ng/mL for compound 93, compound 83, compound 54 and compound 70 in liver, 50.0-50000 ng/mL for compound 83 and compound 70 in plasma, 0.5-1000 ng/mL for compound 83 and compound 70 in tumor, 1.0-2000 ng/mL for compound 93 in plasma, 10.0-20000 ng/mL for compound 54 in plasma, 0.5-500 ng/mL for compound 93 and compound 54 in tumor.

[2] = system: A375 human melanoma xenografts; assay: Example 9 efficacy study Part II in A375 human melanoma xenografts (tumor volume, T/C, TGI); assay type: in vivo, BALB/c nude mice; details: 10 mg/kg, p.o., BID × 14 days; for Tumor Size on PG-D14: Mean ± SEM; for TGI (Tumor Growth Inhibition): PG-D14; for T/C: PG-D14, treated/control average tumor volume
Protocol: For efficacy study Part II, agents were tested in the A375 human melanoma xenografts model. Compound 133, Compound 144 and Compound 198 were administered to BALB/c nude mice bearing A375 xenografts from day 0 and dosed twice a day (BID) for 14 days. Compound 133, Compound 144 and Compound 198 were dosed at 10 mg/kg via p.o..
The A375 tumor cells were maintained in vitro in DMEM medium supplemented with […] and 1% Penicillin-Streptomycin at 37° C. in an atmosphere of 5% CO2 in air. The tumor cells were routinely subcultured twice weekly. The cells growing in an exponential growth phase were harvested and counted for tumor inoculation.
Each mouse was inoculated subcutaneously at the right flank with A375 cells (5×10^6) in 0.2 mL of PBS supplemented with Matrigel (PBS: Matrigel=1:1) for tumor development. Animals were grouped for the treatment when the average tumor volume reached 243 mm^3 for efficacy study part I and 413 mm^3 for the PK and PD study part I on day 15, and 271 mm^3 for efficacy part II and 443 mm^3 for the PK and PD part II on day 18, and 463 mm^3 for the PK and PD study part III on day 21. The test articles administration and the animal numbers in each group are shown in the above experimental tables.
Prior to the onset of drug treatment, mice were measured for tumor size in two dimensions using a caliper, and the tumor volume (mm^3) was calculated using formula V=0.5 a×b^2 where a and b are the long and short diameters of the tumor in mm, respectively. Mice were randomized into different treatment groups based on the tumor volume.
The major endpoint was to see if the tumor growth could be delayed or mice could be cured. The tumor size was then used for calculations of T/C value. The T/C value (in percent) is an indication of antitumor effectiveness; T and C are the mean volumes of the treated and control groups, respectively on specified day.
TGI was calculated for each group using the formula: TGI (%)=[1−(Ti−T0)/(Ci−C0)]×100; Ti is the average tumor volume of a treatment group on a given day, To is the average tumor volume of the treatment group on the day of treatment start, Ci is the average tumor volume of the vehicle control group on the same day with Ti, and C0 is the average tumor volume of the vehicle group on the day of treatment start.

[3] = liver, 6 h, read-out: Concentration in Liver (mean ± SEM)
[4] = liver, 12 h, read-out: Concentration in Liver (mean ± SEM)
[5] = plasma, 1 h, read-out: Concentration in Plasma (mean ± SEM)
[6] = plasma, 6 h, read-out: Concentration in Plasma (mean ± SEM)
[7] = plasma, 12 h, read-out: Concentration in Plasma (mean ± SEM)
[8] = plasma, 24 h, read-out: Concentration in Plasma (mean ± SEM)
[9] = tumor, 1 h, read-out: Concentration in Tumor (mean ± SEM)
[10] = tumor, 6 h, read-out: Concentration in Tumor (mean ± SEM)
[11] = tumor, 12 h, read-out: Concentration in Tumor (mean ± SEM)
[12] = tumor, 24 h, read-out: Concentration in Tumor (mean ± SEM)

| SMILES | concentration at 6 h [1, 3] | concentration at 12 h [1, 4] | concentration at 1 h [1, 5] | concentration at 6 h [1, 6] | concentration at 12 h [1, 7] | concentration at 24 h [1, 8] | concentration at 1 h [1, 9] | concentration at 6 h [1, 10] | concentration at 12 h [1, 11] | concentration at 24 h [1, 12] | Tumor Volume Trace Over Time ([2]; Day 0, Mean ± SEM) | Tumor Volume Trace Over Time ([2]; Day 4, Mean ± SEM) | Tumor Volume Trace Over Time ([2]; Day 7, Mean ± SEM) | Tumor Volume Trace Over Time ([2]; Day 11, Mean ± SEM) | Tumor Volume Trace Over Time ([2]; Day 14, Mean ± SEM) | Tumor Size on PG-D14 [2] | TGI (Tumor Growth Inhibition) [2] | T/C [2] | also measured |
| --- | --- | --- | --- | --- | --- | --- | --- | --- | --- | --- | --- | --- | --- | --- | --- | --- | --- | --- | --- |
| CCN(C)S(=O)(=O)Nc1ccc(F)c(Oc2ccc3ncc([C@@H]4COC5(CCN(C6CCC(c7cc8c(cc7F)c(N7CCC(=O)NC7=O)nn8C)CC6)CC5)C4)nc3c2)c1C#N (single isomer, unassigned) [Compound 54] | 4470 ± 501 ng/g | 650 ± 84.2 ng/g | 7740 ± 1180 ng/mL | 3410 ± 703 ng/mL | 605 ± 124 ng/mL | 54 ± 9.5 ng/mL | 513 ± 28.8 ng/g | 931 ± 147 ng/g | 477 ± 125 ng/g | 29.8 ± 2.9 ng/g | – | – | – | – | – | – | – | – | – |
| CCN(C)S(=O)(=O)Nc1ccc(F)c(Oc2ccc3ncn([C@H]4COC5(CCN(C6CC(c7cc8c(cc7F)c(N7CCC(=O)NC7=O)nn8C)C6)CC5)C4)c(=O)c3c2)c1C#N (single isomer, unassigned) [Compound 70] | – | – | – | – | – | – | – | – | – | – | – | – | – | – | – | – | – | – | Concentration in Plasma (mean ± SEM) ([1]; 1 h): 15100 ± 3559 ng/mL; Concentration in Tumor (mean ± SEM) ([1]; 1 h): 816 ± 239 ng/g; Concentration in Liver (mean ± SEM) ([1]; 6 h): 4363 ± 1423 ng/g; Concentration in Plasma (mean ± SEM) ([1]; 6 h): 8563 ± 2312 ng/mL; Concentration in Tumor (mean ± SEM) ([1]; 6 h): 1529 ± 458 ng/g; Concentration in Liver (mean ± SEM) ([1]; 12 h): 921 ± 317 ng/g; Concentration in Plasma (mean ± SEM) ([1]; 12 h): 2105 ± 800 ng/mL; Concentration in Tumor (mean ± SEM) ([1]; 12 h): 564 ± 206 ng/g; Concentration in Plasma (mean ± SEM) ([1]; 24 h): 106 ± 10.8 ng/mL; Concentration in Tumor (mean ± SEM) ([1]; 24 h): 21.9 ± 4.93 ng/g |
| Cn1nc(N2CCC(=O)NC2=O)c2cc(F)c(N3CC4(CC(N5CCC6(CC5)C[C@@H](n5cnc7ccc(Oc8c(F)ccc(NS(=O)(=O)N9CC[C@@H](F)C9)c8C#N)cc7c5=O)CO6)C4)C3)cc21 [Compound 133, (3R)-N-[2-cyano-3-[3-[(3R)-8-[2-[3-(2,4-dioxohexahydropyrimidin-1-yl)-5-fluoro-1-methyl-indazol-6-yl]-2-azaspiro[3.3]heptan-6-yl]-1-oxa-8-azaspiro[4.5]decan-3-yl]-4-oxo-quinazolin-6-yl]oxy-4-fluoro-phenyl]-3-fluoro-pyrrolidine-1-sulfonamide] | – | – | – | – | – | – | – | – | – | – | 271 mm^3 | 193 mm^3 | 99 mm^3 | 71 mm^3 | 32 mm^3 | 32 ± 7 mm^3 | 125.20% | 2.65% | – |
| CO[C@@H]1CCN(S(=O)(=O)Nc2ccc(F)c(Oc3ccc4ncn([C@H]5COC6(CCN(C7CC8(C7)CN(c7cc9c(cc7F)c(N7CCC(=O)NC7=O)nn9C)C8)CC6)C5)c(=O)c4c3)c2C#N)C1 [Compound 144, (3R)-N-[2-cyano-3-[3-[(3R)-8-[2-[3-(2,4-dioxohexahydropyrimidin-1-yl)-5-fluoro-1-methyl-indazol-6-yl]-2-azaspiro[3.3]heptan-6-yl]-1-oxa-8-azaspiro[4.5]decan-3-yl]-4-oxo-quinazolin-6-yl]oxy-4-fluoro-phenyl]-3-methoxy-pyrrolidine-1-sulfonamide] | – | – | – | – | – | – | – | – | – | – | 271 mm^3 | 167 mm^3 | 79 mm^3 | 51 mm^3 | 28 mm^3 | 28 ± 5 mm^3 | 125.70% | 2.27% | – |

Continued, in another order:

| concentration at 6 h [1, 3] | concentration at 12 h [1, 4] | concentration at 1 h [1, 5] | concentration at 6 h [1, 6] | concentration at 12 h [1, 7] | concentration at 24 h [1, 8] | concentration at 1 h [1, 9] | concentration at 6 h [1, 10] | concentration at 12 h [1, 11] | concentration at 24 h [1, 12] | SMILES | Tumor Volume Trace Over Time ([2]; Day 0, Mean ± SEM) | Tumor Volume Trace Over Time ([2]; Day 4, Mean ± SEM) | Tumor Volume Trace Over Time ([2]; Day 7, Mean ± SEM) | Tumor Volume Trace Over Time ([2]; Day 11, Mean ± SEM) | Tumor Volume Trace Over Time ([2]; Day 14, Mean ± SEM) | Tumor Size on PG-D14 [2] | TGI (Tumor Growth Inhibition) [2] | T/C [2] | also measured |
| --- | --- | --- | --- | --- | --- | --- | --- | --- | --- | --- | --- | --- | --- | --- | --- | --- | --- | --- | --- |
| 6990 ± 166 ng/g | 1580 ± 273 ng/g | 20100 ± 1510 ng/mL | 10400 ± 338 ng/mL | 2420 ± 572 ng/mL | 172 ng/mL | 1650 ± 249 ng/g | 1820 ± 354 ng/g | 751 ± 128 ng/g | 57.6 ± 37 ng/g | CCN(C)S(=O)(=O)Nc1ccc(F)c(Oc2ccc3ncn(C4CC5(CCN(C6CCC(c7cc8c(cc7F)c(N7CCC(=O)NC7=O)nn8C)CC6F)CC5)C4)c(=O)c3c2)c1C#N (single isomer, unassigned) [Compound 83, 6-[2-cyano-3-[[ethyl(methyl)sulfamoyl]amino]-6-fluoro-phenoxy]-3-[7-[4-[3-(2,4-dioxohexahydropyrimidin-1-yl)-5-fluoro-1-methyl-indazol-6-yl]-2-fluoro-cyclohexyl]-7-azaspiro[3.5]nonan-2-yl]-4-oxo-quinazoline] | – | – | – | – | – | – | – | – | – |
| 460 ± 32.7 ng/g | 117 ± 30.2 ng/g | 2450 ± 799 ng/mL | 548 ± 28.3 ng/mL | 114 ± 25.6 ng/mL | 2.85 ± 0.408 ng/mL | 232 ± 75.6 ng/g | 129 ± 13.6 ng/g | 50.6 ± 14.1 ng/g | 59.5 ng/g | Cn1nc(N2CCC(=O)NC2=O)c2cc(F)c(C3CCC(N4CCC5(CC4)CC(n4cnc6ccc(Oc7c(F)ccc(NS(=O)(=O)C8CCCC8)c7C#N)cc6c4=O)C5)CC3)cc21 (single isomer, unassigned) [Compound 93, N-[2-cyano-3-[3-[7-[4-[3-(2,4-dioxohexahydropyrimidin-1-yl)-5-fluoro-1-methyl-indazol-6-yl]cyclohexyl]-7-azaspiro[3.5]nonan-2-yl]-4-oxo-quinazolin-6-yl]oxy-4-fluoro-phenyl]cyclopentanesulfonamide] | – | – | – | – | – | – | – | – | – |
